Data taken from PubChem BioAssay (NCI).
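Five concentrations, 48 hours, 96-well plates. GI50 marks 50% less growth. TGI: total growth inhibition.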

Experiments:
Assay in all cases: NCI anticancer screen, dose series, 48 h
786-0 renal = tested on: 786-0 renal
LOX IMVI melanoma = tested on: LOX IMVI melanoma
A498 renal = tested on: A498 renal
SNB-75 CNS = tested on: SNB-75 CNS
NCI-H23 lung = tested on: NCI-H23 lung
SW-620 colon = tested on: SW-620 colon
SR leukemia = tested on: SR leukemia
SK-OV-3 ovarian = tested on: SK-OV-3 ovarian
MDA-MB-435 = tested on: MDA-MB-435
M14 melanoma = tested on: M14 melanoma

| SMILES | GI50 (786-0 renal) | TGI (786-0 renal) | GI50 (LOX IMVI melanoma) | TGI (LOX IMVI melanoma) | GI50 (A498 renal) | TGI (A498 renal) | GI50 (SNB-75 CNS) | TGI (SNB-75 CNS) | GI50 (NCI-H23 lung) | TGI (NCI-H23 lung) | GI50 (SW-620 colon) | TGI (SW-620 colon) | GI50 (SR leukemia) | TGI (SR leukemia) | GI50 (SK-OV-3 ovarian) | TGI (SK-OV-3 ovarian) | GI50 (MDA-MB-435) | TGI (MDA-MB-435) | GI50 (M14 melanoma) | TGI (M14 melanoma) |
| --- | --- | --- | --- | --- | --- | --- | --- | --- | --- | --- | --- | --- | --- | --- | --- | --- | --- | --- | --- | --- |
| CC(C)(C)OC(=O)n1cc(CNC(=S)Nc2ccccc2)c2ccccc21 | 17.7 µM | 34.5 µM | 11.1 µM | 23 µM | 15.1 µM | 31.2 µM | 64.4 µM | > 100 µM | 10.7 µM | 24.4 µM | 13.1 µM | 26.2 µM | 5.07 µM | > 100 µM | 26.4 µM | 90.1 µM | 12.2 µM | 30.1 µM | 17.7 µM | 33.3 µM |
| O=C(CCN1CCN(c2cnc3ccccc3n2)CC1)c1csc2ccccc12 | 28.4 µM | 79.5 µM | 26 µM | 70.1 µM | 47.4 µM | > 100 µM | 24.2 µM | 91.6 µM | > 100 µM | > 100 µM | 20.9 µM | 45.4 µM | 36.1 µM | > 100 µM | > 100 µM | > 100 µM | > 100 µM | > 100 µM | 75.2 µM | > 100 µM |
| COc1cc(/C=C\[N+](=O)[O-])ccc1O | 1.81 µM | 3.94 µM | 1.74 µM | 3.39 µM | 12.3 µM | 24.8 µM | 3.35 µM | 17.2 µM | 3.34 µM | 11.4 µM | 2.1 µM | 5.02 µM | 0.987 µM | 38.5 µM | 12.7 µM | 25.9 µM | 2.16 µM | 5.98 µM | 2.05 µM | 4.98 µM |
| C=C1C(=O)O[C@H]2[C@H]1CC/C(CNC(=O)c1c[nH]c3ccc(F)cc13)=C\CC[C@@]1(C)O[C@@H]21 | 1.33 µM | 2.85 µM | 0.731 µM | 2.14 µM | 1.99 µM | 11.9 µM | 1.81 µM | 16.2 µM | 1.68 µM | 3.8 µM | 0.639 µM | 2.1 µM | 1.01 µM | 4.78 µM | 10.8 µM | 22.7 µM | 1.77 µM | 7.41 µM | 1.04 µM | 2.33 µM |
| Cc1ccc2c(C(C[N+](=O)[O-])c3cccs3)c(-c3ccccc3)[nH]c2c1 (stereo not given) | 2.26 µM | 7.89 µM | 1.78 µM | 6.05 µM | 1.05 µM | 4.34 µM | 0.638 µM | 2.49 µM | 1.88 µM | 8.18 µM | 1.39 µM | 8.12 µM | 1.43 µM | > 33.3 µM | 3.44 µM | 19.7 µM | 0.822 µM | 2.14 µM | 1.28 µM | 5.57 µM |
| CNC(=O)c1ccccc1CC1(O)c2ccccc2Oc2ccccc21 | 20.3 µM | 46.4 µM | 29.1 µM | > 100 µM | 4.54 µM | 37.5 µM | 12.4 µM | 39 µM | 26 µM | > 100 µM | 14 µM | > 100 µM | 6.61 µM | 86.4 µM | 24 µM | 87.3 µM | 3.32 µM | 19.9 µM | 15.3 µM | 56.6 µM |
| CN1CCN(CC#Cc2cccc(C(=O)c3cnn(-c4ccc(F)cc4)c3N)c2)CC1 | > 25 µM | > 25 µM | > 25 µM | > 25 µM | > 25 µM | > 25 µM | > 25 µM | > 25 µM | > 25 µM | > 25 µM | > 25 µM | > 25 µM | > 25 µM | > 25 µM | > 25 µM | > 25 µM | > 25 µM | > 25 µM | > 25 µM | > 25 µM |
| C[C@@H]1CC[C@@H]2[C@@H]1[C@H](OC(=O)/C=C/c1ccccc1)[C@]1(c3ccccc3)C[C@@H](OC(=O)CO)[C@@]2(C)O1 | 11.7 µM | 29.3 µM | 13.9 µM | 27.2 µM | 0.189 µM | 0.585 µM | 11.6 µM | 37.9 µM | 15 µM | 35.9 µM | 19.1 µM | 42.6 µM | 5.86 µM | 38.8 µM | 23.4 µM | 55.6 µM | 14.9 µM | 33.2 µM | 16.2 µM | 35.8 µM |
| CC1(C)N=C(N)N=C(N)N1c1ccc(CCCCc2ccc(S(=O)(=O)F)cc2)cc1 | 0.64 µM | 19.1 µM | 0.488 µM | 15 µM | 3.81 µM | 87.6 µM | 2.16 µM | 20.2 µM | 2.6 µM | 24.8 µM | 0.415 µM | 15.4 µM | 0.58 µM | 25.8 µM | 15.5 µM | > 85 µM | 0.506 µM | 17 µM | 1.16 µM | 23.3 µM |
| COC(=O)C(=O)CC(=O)CCn1ncc(Cl)c(Cl)c1=O |  | 43.6 µM |  | 15.3 µM |  | 49.6 µM |  | 35.6 µM |  | 26.9 µM |  | 13.3 µM |  | 5.76 µM |  | 40.8 µM | 3.37 µM | 12.8 µM |  | 26.7 µM |
| CN1CCN(Cc2ccc(C(=O)Nc3cncc(C#Cc4cnc(N)c5ccccc45)c3)cc2C(F)(F)F)CC1 | 1.78 µM | 3.25 µM | 1.75 µM | 3.17 µM | 1.52 µM | 3.73 µM | 3.42 µM | 12.3 µM | 1.85 µM | 4.41 µM | 1.78 µM | 3.89 µM | 2.09 µM | 5.17 µM | 10.8 µM | 22.9 µM | 1.71 µM | 3.12 µM | 4.22 µM | 14.8 µM |
| C#Cc1cnc(=O)n(C2CC(O)C(CO)O2)c1 (stereo not given) | > 100 µM | > 100 µM | > 100 µM | > 100 µM | > 100 µM | > 100 µM | > 100 µM | > 100 µM | > 100 µM | > 100 µM | > 100 µM | > 100 µM | 91.5 µM | > 100 µM | > 100 µM | > 100 µM | > 100 µM | > 100 µM | > 100 µM | > 100 µM |
| CC(CO)(CO)N=Cc1cc(I)cc(I)c1O |  | 30.9 µM |  | 24.2 µM |  | 65.4 µM |  | 34.8 µM |  | 58.7 µM |  | 53 µM |  | 54.1 µM |  | 41.9 µM |  | 40.3 µM |  | 39.3 µM |
| N#Cc1c(NC(=O)c2cccc(C(F)(F)F)c2)sc2c1CCC(=O)C2 | 0.716 µM | 5.85 µM | 0.369 µM | 1.68 µM | 1.71 µM | 5.5 µM | 1.19 µM | 3.13 µM | 0.379 µM | 2.88 µM | 0.3 µM | 1.83 µM | 0.347 µM | > 31.8 µM | 2.3 µM | 6.19 µM | 0.651 µM | 2.11 µM | 0.525 µM | 2.22 µM |
| O=C(c1cccs1)c1c(C(F)(F)F)n([O-])c2ccccc2[n+]1=O | 0.521 µM | 1.45 µM | 0.448 µM | 1.12 µM | 0.79 µM | 2.4 µM | 2.94 µM | 9.05 µM | 0.788 µM | 1.73 µM | 1.01 µM | 5.94 µM | 2.56 µM | 6.03 µM | 2.11 µM | 7.56 µM | 1.15 µM | 3.5 µM | 0.771 µM | 1.58 µM |
| COc1ccc(NC(=O)Nc2n[nH]c3ccccc23)cc1 | > 100 µM | > 100 µM | > 100 µM | > 100 µM | > 100 µM | > 100 µM | > 100 µM | > 100 µM | > 100 µM | > 100 µM | > 100 µM | > 100 µM | > 100 µM | > 100 µM | > 100 µM | > 100 µM | > 100 µM | > 100 µM | > 100 µM | > 100 µM |
| N/C(CC(=O)Nc1cc(C(F)(F)F)ccc1Cl)=N\O |  | > 100 µM |  | > 100 µM |  | > 100 µM |  | > 100 µM |  | > 100 µM |  | > 100 µM |  | > 100 µM |  | > 100 µM |  | > 100 µM |  | > 100 µM |
| NC(CO)Cc1cnc[nH]1 (stereo not given) | > 100 µM | > 100 µM | > 100 µM | > 100 µM | > 100 µM | > 100 µM | > 100 µM | > 100 µM | > 100 µM | > 100 µM | > 100 µM | > 100 µM | > 100 µM | > 100 µM | > 100 µM | > 100 µM | > 100 µM | > 100 µM |  | > 100 µM |
| NC(N)=N/N=C(/c1ccccc1)c1ccc(F)cc1 | 0.638 µM | 13.9 µM | 0.513 µM | 10.7 µM | 0.299 µM | 3.28 µM | 0.183 µM | 3.09 µM | 0.403 µM | 8.94 µM | 0.376 µM | 19.3 µM | 0.286 µM | 6.11 µM | 0.371 µM | 12.8 µM | 0.203 µM | 0.834 µM | 0.209 µM | 0.506 µM |
| CCN1CCN(c2nc(NCCCNc3ccnc4cc(Cl)ccc34)c3ccccc3n2)CC1 | 2.18 µM | 5.82 µM | 1.61 µM | 3.13 µM | 11.3 µM | 23.5 µM | 1.78 µM | 6.88 µM | 4.29 µM | 16.9 µM | 2.36 µM | 7.63 µM | 1.29 µM | 5.44 µM | 2.98 µM | 9.23 µM | 1.92 µM | 3.53 µM | 1.86 µM | 3.63 µM |
